For orientation: EC50 means the concentration needed to bring the measured effect to its halfway point. One may read the IC50 as the concentration at which inhibition is half-maximal. Higher therefore signals weaker potency in that assay.

EC50 and IC50 data for 17 molecules are collected here from patent US20250320213A1, “Nitrogen-Containing Heterocyclic Compounds” (Pfizer Inc., priority 2024, published 2025).

For experiment [1], the target named is T1, STAT6 (Homo sapiens, UniProt P42226).
T1 construct: stably transfected HaCaT keratinocyte cell line, which expresses NanoLuc luciferase reporter gene under the transcriptional control of the STAT6 responsive promoter; endogenous in cells; host or cells: HaCaT keratinocyte reporter cell line (stably transfected with a NanoLuc reporter)
T1 sequence (P42226 1-847): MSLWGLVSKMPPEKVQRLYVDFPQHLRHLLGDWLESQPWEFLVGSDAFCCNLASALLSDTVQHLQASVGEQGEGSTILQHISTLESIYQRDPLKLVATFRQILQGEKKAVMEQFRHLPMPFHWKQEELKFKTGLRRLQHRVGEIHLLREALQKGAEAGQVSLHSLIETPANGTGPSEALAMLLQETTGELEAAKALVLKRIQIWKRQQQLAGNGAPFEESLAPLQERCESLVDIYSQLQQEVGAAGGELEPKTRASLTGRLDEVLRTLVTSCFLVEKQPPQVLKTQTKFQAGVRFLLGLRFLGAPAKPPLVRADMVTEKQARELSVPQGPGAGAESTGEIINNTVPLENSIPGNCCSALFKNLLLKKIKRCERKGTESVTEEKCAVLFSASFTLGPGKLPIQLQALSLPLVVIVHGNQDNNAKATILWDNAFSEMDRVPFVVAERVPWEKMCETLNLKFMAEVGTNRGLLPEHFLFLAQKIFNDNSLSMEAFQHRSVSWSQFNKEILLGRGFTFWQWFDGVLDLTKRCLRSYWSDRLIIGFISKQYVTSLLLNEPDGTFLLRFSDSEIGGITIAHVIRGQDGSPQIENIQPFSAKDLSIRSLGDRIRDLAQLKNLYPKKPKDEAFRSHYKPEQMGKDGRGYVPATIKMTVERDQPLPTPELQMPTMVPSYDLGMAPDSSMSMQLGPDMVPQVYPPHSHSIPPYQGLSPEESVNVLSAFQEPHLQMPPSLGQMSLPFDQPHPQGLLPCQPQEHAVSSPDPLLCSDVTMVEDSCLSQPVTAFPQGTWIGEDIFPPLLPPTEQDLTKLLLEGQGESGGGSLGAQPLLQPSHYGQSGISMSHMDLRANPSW
Briefly: STAT6 Reporter Luciferase Assay (IL-13 stimulated HaCaT keratinocyte NanoLuc reporter cells). The experiment is classed as cell-based. The conditions noted are these: read-out: Reporter EC50. The gist of the method:
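Cells were plated overnight, washed, exposed to compound for two hours, stimulated with IL-13 (0.12 nM final) for four hours at 37 °C, and then lysed with Nano-Glo substrate for 15 min before luminescence reading.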

The test system of experiment [2] is CCL17 secretion in peripheral human whole blood. Briefly: Human Whole Blood (HWB) CCL17 TR-FRET Assay (IL-13 stimulated CCL17 secretion). In kind it is cell-based. The gist of the method: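 Measured here: CCL17 in serum by TR-FRET (665/615 nm) after overnight (16 h) room-temperature detection. The blood, heparinized and compound-treated for 2 h, received IL-13 at 10 ng/mL final and was cultured 48 h at 37 °C.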

The mark [3] stands for this setting: IL-13 stimulated HaCaT STAT6 NanoLuc reporter cells.
Setting [4] is: Homo sapiens, 48 h, human whole blood, IL-13 stimulated.
Setting [5] is: STAT6 NanoLuc luciferase reporter, IL-13 stimulated HaCaT keratinocyte cells.
Setting [6] is: Homo sapiens, 48 h, inhibition of CCL17 secretion in human whole blood, 10 ng/mL IL13, 48 hours.
Setting [7] is: Homo sapiens, 48 h, human whole blood, 10 ng/mL IL13, 48 hours.

Like-named read-outs stand apart in the source and are kept apart here.

Take `CC(C)n1nc(C(=O)NCc2ccc(NC(N)=O)cc2)c2c1CCN(c1ccc(C(N)=O)cn1)C2` [Example 457, 5-(5-carbamoylpyridin-2-yl)-1-isopropyl-N-(4-ureidobenzyl)-4,5,6,7-tetrahydro-1H-pyrazolo[4,3-c]pyridine-3-carboxamide]: in experiment [1] (setting [3]), the concentration giving a half-maximal response (EC50) stood at 5960 nM. The molecule also yielded a half-inhibitory concentration (IC50) in experiment [2] (setting [4]) of 5010 nM.

For the molecule `CCC1Cc2c(c(C(=O)NCc3ccc(NC(=O)N(C)C)cc3)nn2C)CN1c1ccc(C(=O)N(C)C)cn1` (single isomer, unassigned) [Example 270, rel-(R or S)-5-(5-(dimethylcarbamoyl)pyridin-2-yl)-N-(4-(3,3-dimethylureido)benzyl)-6-ethyl-1-methyl-4,5,6,7-tetrahydro-1H-pyrazolo[4,3-c]pyridine-3-carboxamide], the concentration for a half-maximal effect (EC50) in experiment [1] (setting [3]) came out at 7 nM. In experiment [2] (human whole blood, IL-13 stimulated, 48 hours), this molecule yielded an IC50 of 33 nM.

Take `CC1CN(c2ccc(C(=O)N(C)C)cn2)Cc2c(C(=O)NCc3ccc(NC(=O)N(C)C)cc3)nn(C(C)C)c21` (racemic) [Example 95, rac-(R)-5-(5-(dimethylcarbamoyl)pyridin-2-yl)-N-(4-(3,3-dimethylureido)benzyl)-1-isopropyl-7-methyl-4,5,6,7-tetrahydro-1H-pyrazolo[4,3-c]pyridine-3-carboxamide]: the EC50 in experiment [1] (setting [5]) turned out to be 1 nM. The molecule also yielded an IC50 in experiment [2] (setting [6]) of 6 nM.

As to `CN(C)C(=O)Nc1ccc(CNC(=O)c2csc3c2CN(c2ccc(C(=O)N(C)C)cn2)CC3)cc1` [Example 25, 5-(5-(dimethylcarbamoyl)pyridin-2-yl)-N-(4-(3,3-dimethylureido)benzyl)-4,5,6,7-tetrahydrothieno[3,2-c]pyridine-3-carboxamide], the EC50 in experiment [1] (setting [5]) turned out to be 164 nM. The molecule also showed an IC50 in experiment [2] (setting [6]) of 1490 nM.

`CCn1nc(C(=O)NCc2ccc(NC(=O)N(C)C)cc2)c2c1CCN(c1ccc(C(=O)N(C)C)cn1)C2` [Example 3, 5-(5-(Dimethylcarbamoyl)pyridin-2-yl)-N-(4-(3,3-dimethylureido)benzyl)-1-ethyl-4,5,6,7-tetrahydro-1H-pyrazolo[4,3-c]pyridine-3-carboxamide]: the EC50 in experiment [1] (setting [5]) is 10 nM. In addition, in experiment [2] (setting [6]), the IC50 stood at 104 nM.

As to `CNC(=O)Nc1ccc(CNC(=O)c2nn(C(C)C)c3c2CN(c2ccc(C(N)=O)cn2)CC3)cc1` [Example 453, 5-(5-carbamoylpyridin-2-yl)-1-isopropyl-N-(4-(3-methylureido)benzyl)-4,5,6,7-tetrahydro-1H-pyrazolo[4,3-c]pyridine-3-carboxamide], in experiment [1] (setting [3]), the EC50 was found to be 2150 nM. The midpoint of inhibition in experiment [2] (setting [4]), the IC50, lay at 12100 nM.

With `CN(C)C(=O)Nc1ccc(CNC(=O)c2noc3c2CN(c2ccc(C(=O)N(C)C)cn2)CC3)cc1` [Example 28, 5-(5-(dimethylcarbamoyl)pyridin-2-yl)-N-(4-(3,3-dimethylureido)benzyl)-4,5,6,7-tetrahydroisoxazolo[4,5-c]pyridine-3-carboxamide], in experiment [1] (setting [5]), the EC50 is 46 nM. Also, it took 313 nM to reach half-maximal inhibition in experiment [2] (setting [6]) (IC50).

Take `CC(C)n1nc(C(=O)NCc2ccc(NC(=O)N(C)C)cc2)c2c1[C@@H](C)CN(c1ccc(N3CCCC3=O)cn1)C2` [Example 530, (S)—N-(4-(3,3-Dimethylureido)benzyl)-1-isopropyl-7-methyl-5-(5-(2-oxopyrrolidin-1-yl)pyridin-2-yl)-4,5,6,7-tetrahydro-1H-pyrazolo[4,3-c]pyridine-3-carboxamide]: in experiment [1] (setting [3]), the EC50 is 0.2 nM. In experiment [2] (setting [7]), this molecule yielded an IC50 of 6 nM.

On to `COCC(C)n1nc(C(=O)NCc2ccc(NC(=O)N(C)C)cc2)c2c1[C@@H](C)CN(c1ccc(C(=O)N(C)C)cn1)C2` (mixture of isomers) [Example 344, (S)-5-(5-(dimethylcarbamoyl)pyridin-2-yl)-N-(4-(3,3-dimethylureido)benzyl)-1-((RS)-1-methoxypropan-2-yl)-7-methyl-4,5,6,7-tetrahydro-1H-pyrazolo[4,3-c]pyridine-3-carboxamide], for which, in experiment [1] (setting [3]), the EC50 is 1 nM. The same molecule yielded a half-inhibitory concentration (IC50) in experiment [2] (setting [4]) of 8 nM.

Consider `CNC1(C)CCN(C(=O)Nc2ccc(CNC(=O)c3nn(C(C)C)c4c3CN(c3ccc(C(=O)N(C)C)cc3)C[C@@H]4C)cc2)C1` (single isomer, unassigned) [Example 713, (S)-5-(4-(dimethylcarbamoyl)phenyl)-1-isopropyl-7-methyl-N-(4-((R*)-3-methyl-3-(methylamino)pyrrolidine-1-carboxamido)benzyl)-4,5,6,7-tetrahydro-1H-pyrazolo[4,3-c]pyridine-3-carboxamide], for which, in experiment [1] (setting [3]), the concentration for a half-maximal effect (EC50) was found to be 3 nM. In experiment [2] (Homo sapiens, 48 h, human whole blood, IL-13 10 ng/mL), this molecule came in with an IC50 of 22 nM.

Turning to `CNC(=O)Nc1ccc(CNC(=O)c2nn(C(C)C)c3c2CN(c2ccc(-n4c(C)nn(C)c4=O)cn2)C[C@@H]3C)cc1` [Example 521, (S)-5-(5-(1,3-dimethyl-5-oxo-1,5-dihydro-4H-1,2,4-triazol-4-yl)pyridin-2-yl)-1-isopropyl-7-methyl-N-(4-(3-methylureido)benzyl)-4,5,6,7-tetrahydro-1H-pyrazolo[4,3-c]pyridine-3-carboxamide], the EC50 in experiment [1] (setting [3]) came to 2 nM. In experiment [2] (setting [4]), this molecule gave an IC50 of 34 nM.

On to `CN(C)C(=O)Nc1ccc(CNC(=O)c2nn(CC(C)(C)C)c3c2CN(c2ccc(C(=O)N(C)C)cn2)CC3)cc1` [Example 253, 5-(5-(dimethylcarbamoyl)pyridin-2-yl)-N-(4-(3,3-dimethylureido)benzyl)-1-neopentyl-4,5,6,7-tetrahydro-1H-pyrazolo[4,3-c]pyridine-3-carboxamide], for which the EC50 in experiment [1] (setting [3]) is 7 nM. Moreover, inhibition in experiment [2] (setting [4]) was half-maximal at 126 nM (IC50).

As for `CCn1nc(C(=O)NCc2ccc(NC(=O)N(C)C)cc2)c2c1[C@@H](C)CN(c1ncc(C(=O)N3Cc4cccnc4C3)cn1)C2` [Example 495, (S)-5-(5-(6,7-dihydro-5H-pyrrolo[3,4-b]pyridine-6-carbonyl)pyrimidin-2-yl)-N-(4-(3,3-dimethylureido)benzyl)-1-ethyl-7-methyl-4,5,6,7-tetrahydro-1H-pyrazolo[4,3-c]pyridine-3-carboxamide], the EC50 in experiment [1] (setting [3]) is 1 nM. This molecule also gave a half-maximal inhibitory concentration (IC50) in experiment [2] (setting [4]) of 34 nM.

For `CC(C)C1CN(c2ccc(C(=O)N(C)C)cn2)Cc2c(C(=O)NCc3ccc(NC(=O)N(C)C)cc3)nn(C)c21` (racemic) [Example 265, rac-(R)-5-(5-(dimethylcarbamoyl)pyridin-2-yl)-N-(4-(3,3-dimethylureido)benzyl)-7-isopropyl-1-methyl-4,5,6,7-tetrahydro-1H-pyrazolo[4,3-c]pyridine-3-carboxamide], the EC50 in experiment [1] (setting [3]) came to 5 nM. For the same molecule, half-maximal inhibition in experiment [2] (setting [4]) (IC50) required 37 nM.

For the molecule `CC(C)n1ncc2c1CN(C(=O)c1ccc(N3CCc4c(c(C(=O)NCc5ccc(NC(=O)N(C)C)cc5)nn4C(C)C)C3)nc1)CC2` [Example 437, N-(4-(3,3-dimethylureido)benzyl)-1-isopropyl-5-(5-(1-isopropyl-4,5,6,7-tetrahydro-1H-pyrazolo[3,4-c]pyridine-6-carbonyl)pyridin-2-yl)-4,5,6,7-tetrahydro-1H-pyrazolo[4,3-c]pyridine-3-carboxamide], the EC50 in experiment [1] (setting [3]) was 45 nM. Further, the 50% inhibitory concentration (IC50) in experiment [2] (setting [4]) is 1050 nM.

Consider `CC(C)n1nc(C(=O)NCc2ccc(NC(=O)N3CCC4(CC3)CNCCO4)cc2)c2c1[C@@H](C)CN(c1ccc(C(=O)N(C)C)cc1)C2` [Example 628, (S)-N-(4-((5-(4-(dimethylcarbamoyl)phenyl)-1-isopropyl-7-methyl-4,5,6,7-tetrahydro-1H-pyrazolo[4,3-c]pyridine-3-carboxamido)methyl)phenyl)-1-oxa-4,9-diazaspiro[5.5]undecane-9-carboxamide], for which, in experiment [1] (setting [3]), the EC50 was 1 nM. In addition, in experiment [2] (setting [7]), the IC50 was found to be 4 nM.

Consider `CC(C)n1nc(C(=O)NCc2ccc(C(N)=O)cc2)c2c1[C@@H](C)CN(c1ccc(C(=O)N(C)C)cn1)C2` [Example 342, (S)-N-(4-carbamoylbenzyl)-5-(5-(dimethylcarbamoyl)pyridin-2-yl)-1-isopropyl-7-methyl-4,5,6,7-tetrahydro-1H-pyrazolo[4,3-c]pyridine-3-carboxamide], for which the EC50 in experiment [1] (setting [3]) turned out to be 3 nM. The IC50 in experiment [2] (setting [4]) was determined as 15 nM.
